Columns and labels:
male Wistar rats = conditions: rat, in vivo
[1] = system: Hypercholesterolemic Rats; design: species or system Wistar rats; conditions: rat, in vivo

CN(C)C(=O)Oc1cccc([N+](C)(C)C)c1 [Neostigmine bromide]
Acute toxicity: state of the rats after administration (male Wistar rats): all the rats were dead
LDL-cholesterol [1]: 76.6 ± 10.7 mg %
Total cholesterol [1]: 131.2 ± 11.8 mg %

— US4661502A (priority 1983, dated 1987)
